Measured values as given in patent publication US4594345A, “Methylflavone-8-carboxylates” (Nippon Shinyaku Co. Ltd., priority 1982, dated 1986).

Legend:
[1] = tested on: passive cutaneous anaphylaxis (PCA); experiment: Passive cutaneous anaphylaxis assay (PCA) in rats; assay type: in vivo, rat (Wister strain); settings: Rattus norvegicus, po, 1 h, oral 10 mg/kg, one hour before antigen, read-out: PCA Inhibition Ratio %
Procedure: (§1) The effect of the compounds (I) of the present invention in the treatment of asthma and allergic diseases were evaluated by a passive cutaneous anaphylaxis assay (PCA) in rats and by measuring anti-SRS-A action using ileus of guinea pigs.
(i) Antiserum abundant in homocytotropic antibody is prepared by the same method as Tada and Okumura did (cf. Journal of Immunology, volume 106, page 1002, […]). Thus, one mg (calculated as an amount of protein) of DNP-As (2,4-dinitrophenyl-coupled ascaris extract) prepared by methods of Strejan and Campbell (Journal of Immunology, volume 98, page 893, 1971) and of Eisen (Journal of American Chemical Society, volume 85, page 4593, 1953) and […] pertussis vaccine are administered to each paw of Wister strain rats (180 to 200 grams body weights) by dividing the dose by four. Five days later, 0.5 mg of DNP-As is adminstered into muscle of back. Eight days later from the initial immunization, blood is taken from descending aorta under anesthetizing with ether, the resulting serum is stored at -80° C. and is melted before use.
(ii) Effect of tested compounds is investigated as follows:
Anti-serum obtained by the method (i) is diluted with physiological saline solution double by double successively and 0.05 ml of each diluted solution is administered into back of Wister strain rats (140 to 160 grams body weight) subcutaneously. After 72 hours, a solution of 2 mg (calculated as protein) of DNP-As and 2.5 mg of Evand Blue dissolved in 1 ml of physiological saline solution is administered intravenously at a dose of 5 ml/kg. After thirty minutes from antigen solution administration, the animals are killed and diameters of blue spots appeared at the place where antiserum is administered are measured. The PCA test is conducted by the same method as already described using a diluted solutions of antiserum which always show 10 mm or more of spot diameters and the effect of the test compounds is judged. Thus, antiserum diluted solutions are administered to two places in back. Test compounds are administered orally at the dose of 10 mg/kg one hour before administration of antigen solution. From the skin of reacted parts of killed animals, leaked or emitted dyestuff is extracted [cf. Baeck and Steinetz: J. Pharmacol. Exp. Ther., Vol. 131, page 400 (1961)] and the amount of the dyestuff is measured. The inhibition ratio is calculated by the following expression: [formula] in which R' is an amount of dyestuff in the group treated with the test compounds and A is that in the control group.

SRS-A = experiment: Anti-SRS-A action (SRS-A induced shrinkage of guinea pig ileus); set-up: species or system guinea pig (Hartley strain male); settings: treated five minutes before SRS-A (20 units), 5 min; for SRS-A Inhibition Ratio % 10^-6 M: 1 µM; for SRS-A Inhibition Ratio % 10^-7 M: 0.1 µM
Procedure: as §1
Anti-SRS-A action (An anti-action against slow reacting substance of anaphylaxie)
Hartley strain male guinea pigs (300 to 350 grams body weight) are killed and 1.0 to 1.5 cm of ileus is immediately excised from ileocecal parts and is suspended in 10 ml of Tyrode solution (95% O2 -5% CO2 saturation) containing 10^-7 g/ml of atropine and 10^-6 g/ml of pyrilamine. SRS-A (20 units) (the amount of SRS-A showing the same shrinkage as 5 ng of histamine is defined as one unit) prepared by using sensitized guinea pig lung is given to cause shrinkage there. Then antagonistic action of test compounds treated five minutes ago against the shrinkage is measured and recorded via isotonic transducer. [formula] in which A' is a height of shrinkage of SRS-A + test compound and A is that of SRS-A.

carrageenin edema = experiment: Carrageenin edema in hind foot of rat (anti-inflammatory action); assay type: in vivo, rat (SD strain); set-up: concentration or dose not given beside the values; settings: rats, oral one hour prior to carrageenin; foot volume three hours after
Procedure: Anti-inflammatory action was evaluated by measuring the effect of the compounds (I) in inhibiting carrageenin edema as illustrated below.
Carrageenin edema in hind foot of rat.
SD strain rats of about 150 grams body weight were used; each group consisted of five rats. Thus, 0.1 ml of 0.5% carrageenin solution in physiological saline water was hypodermically injected to the right hind foot of rat. The test compound was given orally to rats one hour prior to the above carrageenin treatment. Then the volume of the foot before and three hours after the carrageenin treatment was measured and the difference was compared with that of the control group.

male mice = experiment: Acute toxicity, oral, observed for two weeks; assay type: in vivo; settings: oral 4000 mg/kg, dead/total
Procedure: Acute toxicity is observed for two weeks by oral adminsitration of 4000 mg/kg of the test compounds to male mice. One group consists of four mice. Numbers of dead mice are shown in numerators.

allergic asthma = settings: cited from earlier work
mast cells = settings: believed; cited from earlier work

| Structure (SMILES) | inhibition in vivo at 10 mg/kg [1] [%] | SRS-A Inhibition Ratio % 10^-6 M (SRS-A) [%] | SRS-A Inhibition Ratio % 10^-7 M (SRS-A) [%] | % Inhibition (carrageenin edema) (carrageenin edema) [%] | Lethal Ratio (male mice) | duration of action (allergic asthma; in vivo) | pharmaceutical effect by oral administration (allergic asthma; oral) | effect in allergic asthma (allergic asthma; reported by Cox, et al.) | inhibition of emission of chemical mediators (mast cells) |
| --- | --- | --- | --- | --- | --- | --- | --- | --- | --- |
| Cc1c(-c2ccccc2OC(C)C)oc2c(C(=O)O)cccc2c1=O [Example 20, 2'-isopropoxy-3-methylflavone-8-carboxylic acid] | 20.7 | 38.5 | 20.4 | 32.5 | – | – | – | – | – |
| CCOc1ccccc1-c1oc2c(C(=O)OCCO)cccc2c(=O)c1C [Example 4, Beta-Hydroxyethyl 2'-ethoxy-3-methylflavone 8-carboxylate] | 20.5 | 67.2 | 42.4 | 33.9 | 0/4 | – | – | – | – |
| CCCCCCCCc1ccc(-c2oc3c(C(=O)O)cccc3c(=O)c2C)cc1 [Example 62, 3-methyl-4'-n-octylflavone-8-carboxylicacid] | 16.3 | 83.3 | 31.0 | – | 0/4 | – | – | – | – |
| CCCCCc1ccc(-c2oc3c(C(=O)O)cccc3c(=O)c2C)cc1 [Example 58, 3-methyl-4'-n-pentylflavone-8-carboxylic acid] | 28.8 | 40.0 | 10.3 | 31.9 | 0/4 | – | – | – | – |
| O=C(O)c1cc(=O)c2c(OCC(O)COc3cccc4oc(C(=O)O)cc(=O)c34)cccc2o1 [sodium cromoglicate] | – | – | – | – | – | its action is of short duration | does not show any pharmaceutical effect by oral administration | effective for allergic asthma | inhibits emission of chemical mediators from mast cells |
| CCOC(=O)c1cccc2c(=O)c(C)c(-c3ccccc3OC)oc12 [Example 11, ethyl 2'-methoxy-3-methylflavone-8-carboxylate] | 16.3 | 100 | 35.1 | – | 0/4 | – | – | – | – |
| CCOc1ccccc1-c1oc2c(C(=O)N(CC)CC)cccc2c(=O)c1C [Example 18, 2'-ethoxy-3-methylflavone-8-carboxylic acid N,N-diethylamide] | 27.4 | 57.1 | 32.1 | – | 0/4 | – | – | – | – |
| CCNC(=O)c1cccc2c(=O)c(C)c(-c3ccccc3OC)oc12 [Example 13, 2'-methoxy-3-methylflavone-8-carboxylic acid acid N-ethylamide] | 23 | 45.2 | 37.4 | – | 1/4 | – | – | – | – |
| CCN(CC)C(=O)c1cccc2c(=O)c(C)c(-c3ccc(C(C)C)cc3)oc12 [Example 48, 4'-isopropyl-3-methylflavone-8-carboxylic acid N,N-diethylamide] | 27.2 | 100 | 23.3 | 23.2 | 0/4 | – | – | – | – |
| Cc1c(-c2ccc(C(C)(C)C)cc2)oc2c(C(=O)O)cccc2c1=O [Example 55, 4'-tertiary butyl-3-methylflavone-8-carboxylic acid] | 20.3 | 100 | 21.1 | 19.1 | – | – | – | – | – |
| CCOC(=O)c1cccc2c(=O)c(C)c(-c3ccc(C(C)(C)C)cc3)oc12 [Example 56, ethyl 4'-tertiary butyl-3-methylflavone-8-carboxylate] | 20.2 | 44.9 | 19.0 | – | – | – | – | – | – |
| Cc1c(-c2ccc(Cl)cc2)oc2c(C(=O)OCCO)cccc2c1=O [Example 74, beta-hydroxyethyl 4'-chloro-3-methylflavone-8-carboxylate] | 17.3 | 52.0 | 18.7 | – | 0/4 | – | – | – | – |
| CCCCCc1ccc(-c2oc3c(C(=O)N(CC)CC)cccc3c(=O)c2C)cc1 [Example 60, 3-methyl-4'-n-pentylflavone-8-carboxylic acid N,N-diethylamide] | 13.4 | 100 | 44.9 | – | – | – | – | – | – |
| CCN(CC)C(=O)c1cccc2c(=O)c(C)c(-c3ccc(Cl)cc3)oc12 [Example 72, 4'-chloro-3-methylflavone-8-carboxylic acid N,N-diethylamide] | 16.3 | 42.1 | 7.5 | – | – | – | – | – | – |
| CCN(CC)C(=O)c1cccc2c(=O)c(C)c(-c3ccccc3C)oc12 [Example 35, 2',3-dimethylflavone-8-carboxylic acid N,N-diethylamide] | 13.3 | 48.8 | 18.0 | 13.0 | – | – | – | – | – |
| CCN(CC)C(=O)c1cccc2c(=O)c(C)c(-c3ccc(OC)c(OC)c3OC)oc12 [Example 30, 2',3',4'-trimethoxy-3-methylflavone-8-carboxylic acid N,N-diethylamide] | 16.3 | 31.0 | 18.0 | – | – | – | – | – | – |
| CCOC(=O)c1cccc2c(=O)c(C)c(-c3ccccc3CC)oc12 [Example 37, ethyl 2'-ethyl-3-methylflavone-8-carboxylate] | 20.5 | 100 | 25.0 | – | – | – | – | – | – |
| Cc1ccc(-c2oc3c(C(=O)OCCO)cccc3c(=O)c2C)c(C)c1 [Example 42, beta-hydroxyethyl 2'.3.4'-trimethylflavone-8-carboxylate] | 19.8 | 27.6 | 10.3 | – | – | – | – | – | – |
| Cc1ccc(-c2oc3c(C(=O)O)cccc3c(=O)c2C)c(C)c1 [Example 39, 2',3,4'-trimethylflavone-8-carboxylic acid] | 37 | 5.3 | 3.2 | – | – | – | – | – | – |
